How the values were obtained:
[1] = Period 2: mass balance (total radioactivity in urine and feces); assay type: in vivo, human
Method: (§1) After a washout of 8–9 days, participants returned to the clinic for Day − 1 of Period 2. On Day 1 of Period 2, after a fast of ≥ 10 h, participants received a single nominal dose of 160 mg (~ 100 µCi; whole body effective dose of 5.3 mrem for a 70-kg human) [^14C]-mobocertinib as a 70 mL oral solution. The actual doses administered ranged from 161 to 163 mg (92.4 to 93.9 µCi). Participants stayed in the clinic from Day − 1 until a discharge criterion (≥ 80% of the total administered radioactive dose was recovered in urine and feces or excretion of radioactivity in urine and feces combined had declined to ≤ 1% of the total administered dose per day for ≥ 2 consecutive intervals) was met, or up to 10 days postdose. To measure the total radioactivity and concentrations of mobocertinib, AP32960, and AP32914 in whole blood and plasma, 4 blood samples were collected predose, and at 0.5, 1, 2, 3, 4, 5, 6, 8, 12, 24, 36, 48, 72, 96, 120, 144, 168, 192, 216, and 240 h postdose; a fifth blood sample was collected for plasma metabolite profiling at predose and 1, 2, 4, 6, 12, 24, 48, 72, 96, 120, and 168 h postdose. Feces and urine were collected predose (feces within 48 h and urine within 24 h prior to dosing), 0–24 h (urine from 0–12 and 12–24 h), and then at 24-hour intervals up to 240 h postdose or until a discharge criterion was met. […] These 2 participants continued with at-home fecal sample collections. One participant provided fecal samples until Day 13 (264–288 h interval) and one participant provided fecal samples until Day 19 (408–432 h interval), after which they met a discharge criterion.
(§2) Plasma, whole blood, and urine samples were assayed for mobocertinib, AP32960, and AP32914 concentrations using liquid chromatography-tandem mass spectrometry (Q2 Solutions, Ithaca, New York, USA). The analytical range for each analyte was 0.250 to 500 ng/mL in whole blood and plasma, and 1.00 to 1000 ng/mL in urine. […] Urine and fecal samples were assayed for total radioactivity following the IV dose of [^14C]-mobocertinib in Period 1, and whole blood, plasma, urine, and fecal samples were assayed for total radioactivity following the oral dose of [^14C]-mobocertinib in Period 2 using liquid scintillation counting (LSC; Celerion, Lincoln, Nebraska, USA; LLOQs: Period 1 urine: 0.115–0.118 ng eq/g, feces: 0.720–0.759 ng eq/g; Period 2 whole blood: 87.3–112 ng eq/g, plasma: 116–132 ng eq/mL, urine: 37.8–46.8 ng eq/g, feces: 110–336 ng eq/g across participants). Urine and fecal samples collected in Period 1 that had total radioactivity concentration equivalents below the LLOQ of the Celerion LSC assay were sent to Pharmaron for measurement by AMS (LLOQ: urine: 0.0000253–0.00111 ng eq/g; feces: 0.000404–0.0278 ng eq/g across participants). The LSC and AMS assays were not cross-validated.
PK parameters for analytes in urine and feces were calculated using SAS Version 9.4 and included the cumulative amounts and percentages of the administered radioactive dose excreted as [^14C]-mobocertinib, [^14C]-AP32960, and [^14C]-AP32914 in urine and feces following IV dosing in Period 1 and oral dosing in Period 2. Renal clearance (CLR) was calculated as the cumulative amount of radiolabeled mobocertinib, AP32960, or AP32914 recovered in urine divided by the plasma AUC to the time of the last common time point at which an analyte was quantifiable in both urine and plasma for individual participants (AUCCLR) following oral dosing of [^14C]-mobocertinib in Period 2. Mass balance was defined as the percentage of total radioactivity recovered in urine and feces combined relative to the total amount of the administered radioactive dose.

[2] = Period 2: urine PK (renal clearance, urinary recovery); assay type: in vivo, human
Method: as §1, with “One participant provided fecal samples until Day 13 (264–288 h interval) and one participant provided fecal samples until Day 19 (408–432 h interval), after which they met a discharge criterion.” left out
as §2, with “USA).” for “USA). The analytical range for each analyte was 0.250 to 500 ng/mL in whole blood and plasma, and 1.00 to 1000 ng/mL in urine.”, “The LSC and AMS assays were not cross-validated.” left out
PK parameters for analytes in urine and feces were calculated using SAS Version 9.4 and included the cumulative amounts and percentages of the administered radioactive dose excreted as [^14C]-mobocertinib, [^14C]-AP32960, and [^14C]-AP32914 in urine and feces following IV dosing in Period 1 and oral dosing in Period 2. […]

[3] = oral doses ranging from 5 to 180 mg; cited from earlier work
[4] = set-up: method as in PMID 34145979; details: healthy participants, cited from earlier work
[5] = Period 1: excretion in urine and feces after IV [14C]-mobocertinib; assay type: in vivo, human; details: Period 1, IV infusion 50 µg (~2 µCi) [14C]-mobocertinib
Method: On Day 1 of Period 1, following an overnight fast of at least 10 h, participants received a single 160 mg dose of non-radiolabeled mobocertinib as capsules. At 3.75 h post oral dosing (i.e., 15 min before the median oral tmax of ~ 4 h), participants received a nominal dose of 50 µg (~ 2 µCi) [^14C]-mobocertinib as a 15-minute IV infusion. However, due to nonspecific binding of [^14C]-mobocertinib to the dosing syringe and tubing, actual doses administered ranged from 36.8 to 38.7 µg (1.47 to 1.55 µCi). Participants were required to stay in the clinic from Day − 1 through at least the 96-hour blood draw (Day 5) or until a discharge criterion was met (i.e., ≥ 80% of the total administered radioactive dose was recovered in urine and fecal samples or excretion of radioactivity in urine and feces combined had declined to ≤ 1% of the total administered dose per day for ≥ 2 consecutive intervals), up to a maximum of 7 days postdose (Day 8). Blood samples for the measurement of plasma mobocertinib, AP32960, and AP32914 concentrations were collected predose and at 0.5, 1, 2, 3, 4, 5, 6, 8, 12, 24, 36, 48, 72, and 96 h after oral administration. Additional blood samples to determine [^14C]-total radioactivity, [^14C]-mobocertinib, [^14C]-AP32960, and [^14C]-AP32914 in plasma were collected at 3.75 h after oral dosing (i.e., predose for [^14C] assessments), at the end of the IV infusion, and at 10, 20, and 30 min, and 1, 2, 4, 8, 20, 32, 44, 68, and 92 h after the end of infusion. […]
as §2, with “USA).” for “USA). The analytical range for each analyte was 0.250 to 500 ng/mL in whole blood and plasma, and 1.00 to 1000 ng/mL in urine.”, “The LSC and AMS assays were not cross-validated.” left out

[6] = Period 2, oral solution 160 mg (~100 µCi) [14C]-mobocertinib, geometric mean

C=CC(=O)Nc1cc(Nc2ncc(C(=O)OC(C)C)c(-c3cn(C)c4ccccc34)n2)c(OC)cc1N(C)CCN(C)C [Mobocertinib]
administered radioactive dose unaccounted for ([1]; male, human, in vivo, po): Approximately 20%
cumulative percentage of the radioactive dose recovered in feces (total radioactivity) ([1]; male, human, in vivo, po): 76.0%
cumulative percentage of the radioactive dose recovered in urine (total radioactivity) ([1]; male, human, in vivo, po): 3.57%
radioactive dose recovered in urine as mobocertinib, AP32960 and AP32914 combined ([2]; male, human, in vivo, po): 1.13%
CL renal ([2]; male, human, in vivo, po, 160 mg): 11 mL/min
median time to maximum observed concentration (tmax) [3]: 4 h
decrease of combined molar AUC of mobocertinib and its active metabolites ([4]; coadministration of strong CYP3A inducer rifampin): 95%
increase of combined molar AUC of mobocertinib and its active metabolites ([4]; coadministration of strong CYP3A inhibitor itraconazole): 527%

[^14C]-mobocertinib
administered radioactive dose excreted in urine as analyte [5]: 1.5%
dose recovered as total radioactivity in feces overall [5]: 69.9%
dose recovered as total radioactivity in urine overall [5]: 4.7%
radioactive dose excreted in feces as analyte [5]: 2.5%
cumulative percentage of the radioactive dose recovered in feces (total radioactivity) [1, 6]: 76.0%
cumulative percentage of the radioactive dose recovered in urine (total radioactivity) [1, 6]: 3.57%
cumulative percentage of the radioactive dose recovered in urine and feces combined ([1]; Period 2, oral solution 160 mg (~100 µCi) [14C]-mobocertinib, geometric mean, 432-hour collection interval): 79.6%
radioactive dose recovered in urine as mobocertinib, AP32960 and AP32914 combined ([2]; Period 2, oral solution 160 mg [14C]-mobocertinib): 1.13%
total oral radioactive dose recovered in urine as analyte ([2]; Period 2, oral solution 160 mg [14C]-mobocertinib, geometric mean): 0.39%

From paper PMC11327196, “A phase 1 study to assess the absolute bioavailability, mass balance, pharmacokinetics, metabolism, and excretion of [^14C]-mobocertinib, an oral inhibitor of EGFR exon 20 insertion mutations, in healthy participants” (Investigational New Drugs, 2024)
